Earlier results in patent publication US20070135444A1, “Treatment of neuroblastoma” (priority 2002, published 2007).

Conditions: pediatric phase I trial; no maximal dose tolerated reached up to this dose

CS(=O)(=O)O.Cc1ccc(NC(=O)c2ccc(CN3CCN(C)CC3)cc2)cc1Nc1nccc(-c2cccnc2)n1 [SALT I]
maximal dose tolerated: > 570 mg/m^2/day
